Results: patent publication US20200397795A1, “PROPHYLACTIC TREATMENT OF VENOUS THROMBOEMBOLISM” (JANSSEN PHARMACEUTICALS, INC., priority 2019, published 2020)

System: venous thromboembolism (VTE) in patients hospitalized for acute medical illness
Test: MAGELLAN (Study 1): efficacy of oral rivaroxaban 10 mg OD 35 days vs sc enoxaparin 40 mg OD 10 days then placebo
Assay type: in vivo
Procedure: The objective of Study 1 (MAGELLAN or MAGELLAN Study) was to compare efficacy and safety of venous thromboembolism (VTE) prophylaxis with oral rivaroxaban 10 mg once daily administered for 35±4 days (hereafter referred to as 35 days or Day 35) to subcutaneous enoxaparin 40 mg once daily (OD) administered for 10±4 days (hereafter referred to as 10 days or Day 10) in men and women aged 40 years or above, who have been hospitalized for a medical illness.
Diagnosis and main criteria for inclusion in Study 1 was men and women 40 years or above and at risk for VTE being hospitalized for acute medical illness conditions, including: heart failure (New York Heart Association [NYHA] class III or IV); active cancer (e.g., admitted for chemotherapy or for the treatment of a complication of active cancer); acute ischemic stroke; acute infectious and inflammatory diseases, including acute rheumatic diseases; and acute respiratory insufficiency. Also at least one additional risk factor for VTE, including: severe varicosis (varicosities); chronic venous insufficiency; history of cancer; history of deep vein thrombosis (DVT) or pulmonary embolism (PE); history of heart failure (NYHA class III or IV); thrombophilia (hereditary or acquired); recent major surgery (6-12 weeks); recent serious trauma (6-12 weeks); hormone replacement therapy; advanced age greater than or equal to 75 years; morbid obesity (body mass index (BMI) 35 kg/m^2 or higher); and acute infectious disease contributing to hospitalization.
The study was conducted in a prospective, randomized, double-blind, double dummy, active comparator-controlled, multicenter and multinational design. There were 8101 subjects were randomized at 556 study centers in 52 countries to one of the two treatment groups. Of the 8101 randomized subjects, 4050 were randomized to active rivaroxaban and 4051 were randomized to active enoxaparin.
Primary Endpoints: The primary efficacy variable was a composite of the number of events of: asymptomatic proximal DVT in lower extremity detected by mandatory bilateral lower extremity venous ultrasonography; symptomatic DVT in lower extremity, proximal or distal; symptomatic, non-fatal PE; and VTE-related death defined as either a well-documented fatal PE, or sudden death with no other plausible explanation. The two primary efficacy endpoints were (i) test of superiority at Day 35 (Days 29-41, inclusive) and (ii) test of non-inferiority at Day 10 (Days 6-15, inclusive).
Secondary Endpoints: The first major secondary efficacy endpoint was defined as a composite of the test of superiority at Day 35 with component of VTE-related death substituted by all-cause mortality, up to Day 35. The second major efficacy secondary efficacy endpoint was the test for superiority at Day 10 using the same composite endpoint as the Day 10 non-inferiority test.
For both primary efficacy endpoints, the relative risk ratio (rivaroxaban/enoxaparin) with respect to the incidences of the primary efficacy endpoint was estimated based on a stratified estimator using Mantel-Haenszel weights (based on sample sizes by geographic region). The corresponding asymptotic 2-sided 95% confidence interval based on the approximation to the normal distribution was determined. Sensitivity analyses were performed for the primary efficacy endpoints.
The primary efficacy variable was a composite of the number of events of (1) asymptomatic proximal DVT in lower extremity detected by mandatory bilateral lower extremity venous ultrasonography; (2) symptomatic DVT in lower extremity, proximal or distal; (3) symptomatic, nonfatal PE; and (4) VTE-related death. […]

[1] = Day 10 + 5, PP Day 10 plus major and clinically relevant bleeds
[2] = Day 10 + 5, per protocol Day 10 analysis set
[3] = Day 10 + 5 up to Day 35 + 6, mITT (Day 10 to Day 35) analysis set
[4] = Day 10 + 5 up to Day 35 + 6, mITT (Day 10 to Day 35) analysis set, listed as rivaroxaban
[5] = Day 35 + 6, mITT Day 35 analysis set
[6] = Day 35 + 6, mITT Day 35 analysis set, listed as rivaroxaban
[7] = Day 35 + 6, mITT Day 35 plus major and clinically relevant bleeds
[8] = Day 35, mITT Day 35 analysis set
[9] = rivaroxaban-placebo phase (Day 10 to Day 35), mITT (Day 10 to Day 35)

O=C(NC[C@H]1CN(c2ccc(N3CCOCC3=O)cc2)C(=O)O1)c1ccc(Cl)s1 [Rivaroxaban, 5-chloro-N-({(5S)-2-oxo-3-[4-(3-oxo-4-morpholinyl)phenyl]-1,3,oxazolidin-5-yl}methyl)-2-thiophenecarboxamide]
Major vascular events (CV death, acute myocardial infarction, or acute ischemic stroke), incidence (Day 10): 1.0%
Symptomatic VTE excluding VTE-related death, incidence (Day 10): 0.5%
Symptomatic VTE including death, incidence (Day 10): 0.7%
Net clinical benefit component: asymptomatic lower proximal deep vein thrombosis [1]: 71 (2.4%)
Net clinical benefit component: clinically relevant non-major bleeding [1]: 51 (1.7%)
Net clinical benefit component: death (pulmonary embolism) [1]: 3 (0.1%)
Net clinical benefit component: major bleeding [1]: 9 (0.3%)
Net clinical benefit component: symptomatic deep vein thrombosis in lower extremity [1]: 7 (0.2%)
Net clinical benefit component: symptomatic non-fatal pulmonary embolism [1]: 6 (0.2%)
Net clinical benefit component: venous thromboembolism related death [1]: 3 (0.1%)
Net clinical benefit, any event, incidence [1]: 134 (4.5%)
Net clinical benefit, any event, incidence (Day 10 + 5, PP Day 10 plus major and clinically relevant bleeds, listed as rivaroxaban): 4.5%
Asymptomatic proximal deep vein thrombosis in lower extremity, incidence [2]: 71 (2.4%)
Death (pulmonary embolism cannot be excluded), incidence [2]: 3 (0.1%)
Primary efficacy composite, any event, incidence [2]: 78 (2.7%)
Symptomatic deep vein thrombosis in lower extremity, incidence [2]: 7 (0.2%)
Venous thromboembolism related death, incidence [2]: 3 (0.1%)
Primary efficacy composite, any event, incidence (Day 10 + 5, per protocol Day 10 analysis set, listed as rivaroxaban): 2.7%
Asymptomatic proximal deep vein thrombosis in lower extremity, incidence [3]: 81 (2.1%)
Death (pulmonary embolism cannot be excluded), incidence [3]: 8 (0.3%)
Death (pulmonary embolism), incidence [3]: 1 (<0.1%)
Symptomatic deep vein thrombosis in lower extremity, incidence [3]: 3 (0.1%)
Symptomatic non-fatal pulmonary embolism, incidence [3]: 1 (<0.1%)
Venous thromboembolism related death, incidence [3]: 9 (0.3%)
Primary efficacy composite, any event, incidence (Day 10 + 5 up to Day 35 + 6, mITT (Day 10 to Day 35) analysis set, rivaroxaban-placebo phase): 72 (2.5%)
Primary efficacy composite, any event, incidence (Day 10 + 5 up to Day 35 + 6, mITT (Day 10 to Day 35) analysis set, rivaroxaban-placebo phase, listed as rivaroxaban): 2.5%
Asymptomatic proximal deep vein thrombosis in lower extremity, incidence [4]: 2.1%
Venous thromboembolism related death, incidence [4]: 0.3%
Relative risk (rivaroxaban/enoxaparin), primary efficacy composite (Day 10, PP Day 10 analysis set): 0.968
Relative risk reduction, primary efficacy composite (Day 10, PP Day 10 analysis set): 3.25%
Relative risk vs enoxaparin, subgroup (Day 10 PP, active cancer): 2.500
Relative risk vs enoxaparin, subgroup (Day 10 PP, age subgroup 65 to <75 years): 1.88
Relative risk vs enoxaparin, subgroup (Day 10 PP, complete immobilization >6 days post randomization): 0.671
Relative risk vs enoxaparin, subgroup (Day 10 PP, complete immobilization post randomization 4-6 days): 1.75
Major vascular events, incidence (Day 35): 1.8%
Symptomatic VTE excluding VTE-related death, incidence (Day 35): 0.6%
Symptomatic VTE including death, incidence (Day 35): 1.0%
Asymptomatic proximal deep vein thrombosis in lower extremity, incidence [5]: 103 (3.5%)
Death (pulmonary embolism cannot be excluded), incidence [5]: 18 (0.6%)
Death (pulmonary embolism), incidence [5]: 1 (<0.1%)
Primary efficacy composite, any event, incidence [5]: 131 (4.4%)
Symptomatic deep vein thrombosis in lower extremity, incidence [5]: 13 (0.4%)
Symptomatic non-fatal pulmonary embolism, incidence [5]: 10 (0.3%)
Venous thromboembolism related death, incidence [5]: 19 (0.6%)
Asymptomatic proximal deep vein thrombosis in lower extremity, incidence [6]: 3.5%
Primary efficacy composite, any event, incidence [6]: 4.4%
Venous thromboembolism related death, incidence [6]: 0.6%
Net clinical benefit component: asymptomatic lower proximal deep vein thrombosis [7]: 104 (3.4%)
Net clinical benefit component: clinically relevant non-major bleeding [7]: 124 (4.1%)
Net clinical benefit component: death (pulmonary embolism cannot be excluded) [7]: 18 (0.6%)
Net clinical benefit component: death (pulmonary embolism) [7]: 1 (<0.1%)
Net clinical benefit component: major bleeding [7]: 43 (1.4%)
Net clinical benefit component: symptomatic deep vein thrombosis in lower extremity [7]: 13 (0.4%)
Net clinical benefit component: symptomatic non-fatal pulmonary embolism [7]: 10 (0.3%)
Net clinical benefit component: venous thromboembolism related death [7]: 19 (0.6%)
Net clinical benefit, any event, incidence [7]: 286 (9.4%)
Net clinical benefit, any event, incidence (Day 35 + 6, mITT Day 35 plus major and clinically relevant bleeds, listed as rivaroxaban): 9.4%
Relative risk (rivaroxaban/enoxaparin), primary efficacy composite [8]: 0.771
Relative risk reduction, primary efficacy composite [8]: 22.89%
Composite endpoint including all-cause mortality, incidence (Day 35, mITT Day 35 expanded): 8.6%
Relative risk, composite endpoint including all-cause mortality (Day 35, mITT Day 35 expanded): 0.931
Relative risk vs enoxaparin, subgroup (Day 35 mITT, active cancer): 1.340
Relative risk vs enoxaparin, subgroup (Day 35 mITT, acute infectious and inflammatory disease): 0.657
Relative risk vs enoxaparin, subgroup (Day 35 mITT, age subgroup 75 years): 0.624
Relative risk vs enoxaparin, subgroup (Day 35 mITT, subjects in Western Europe (including Australia, New Zealand, Israel)): 0.5
All-cause mortality, incidence (Day 90): 6.7%
Major vascular events, incidence (Day 90): 2.8%
Symptomatic VTE excluding VTE-related death, incidence (Day 90): 0.7%
Symptomatic VTE including death, incidence (Day 90): 1.7%
Relative risk reduction, primary efficacy composite [9]: 35.14%
Relative risk, primary efficacy composite [9]: 0.649
